The text below walks through data of publication PMC6357004 (Viruses, 2018).

Assay [1] has as its target neuraminidase (NA) of recombinant influenza B/Phuket/3073/2013 D198E virus (Influenza B virus, UniProt A0A1S5RAG6, D197E). Format: biochemical, influenza B/Phuket/3073/2013 virus.
Assay [2] has as its target neuraminidase (NA) of recombinant influenza B/Phuket/3073/2013 N294S virus (Influenza B virus, UniProt A0A1S5RAG6, N294S). Format: biochemical, influenza B/Phuket/3073/2013 virus.
Assay [3] has as its target neuraminidase (NA) of recombinant influenza B/Phuket/3073/2013 R152K virus (Influenza B virus, UniProt A0A1S5RAG6, R150K). It counts as biochemical, influenza B/Phuket/3073/2013 virus.
Assay [4] has as its target neuraminidase (NA) of recombinant influenza B/Phuket/3073/2013 H136N virus (Influenza B virus, UniProt A0A1S5RAG6, H134N). Format: biochemical, influenza B/Phuket/3073/2013 virus.
For assay [5], the target named is neuraminidase (NA) of recombinant influenza B/Phuket/3073/2013 I222T virus (Influenza B virus, UniProt A0A1S5RAG6, I221T). It counts as biochemical, influenza B/Phuket/3073/2013 virus.
Assay [6] concerns the target neuraminidase (NA) of recombinant influenza B/Phuket/3073/2013 D198N virus (Influenza B virus, UniProt A0A1S5RAG6, D197N). Format: biochemical, influenza B/Phuket/3073/2013 virus.
Assay [7] deals with B/Wyoming/07/2017 (B/Yamagata lineage) D198N variant. The note with it: cited from earlier work.
[8] abbreviates: read-out: Neuraminidase Inhibitors IC50 values.

The structures appear in SMILES notation.

As for `CCC(CC)[C@H](NC(C)=O)[C@@H]1[C@H](O)[C@@H](C(=O)O)C[C@H]1N=C(N)N` [Peramivir, peramivir], the “Folds (fold changes according to WT virus)” value in assay [1] is reported as 21 fold; in assay [2] it was 46 fold; in assay [3], 572 fold; in assay [4], 240 fold; in assay [5], 26 fold; in assay [6], 9 fold. Also, the IC50 in assay [1] (setting [8]) was found to be 15.5 nM; in assay [2] (setting [8]) it was 33.7 nM; in assay [3] (setting [8]), 423 nM; in assay [4] (setting [8]), 177 nM; in assay [5] (setting [8]), 19.5 nM; in assay [6] (setting [8]) it was 6.92 nM.
With `CC(=O)N[C@H]1[C@H]([C@H](O)[C@H](O)CO)OC(C(=O)O)=C[C@@H]1N=C(N)N` [Zanamivir, zanamivir], in assay [7], the susceptibility phenotype result is “susceptible”.

For orientation: IC50 means the midpoint of a concentration-inhibition curve.
